Assay results from article PMC10470178, “Long-acting lenacapavir protects macaques against intravenous challenge with simian-tropic HIV” (eBioMedicine, 2023).

Key:
stHIV-A19 [1] = assay: Multi-round replication assay of stHIV-A19 in primary human PBMCs (PERT readout); format: cell-based, simian-tropic HIV-1; settings: three donors, RT in supernatant at 7 days
Description: (§1) Infectious stocks of stHIV-A19,[23] HIV-1 NL4-3, and SIVmac239 were produced in HEK-293T (RRID: CVCL_1926) cells transfected with full-length viral genome plasmids using the TransIT HEK-293 transfection reagent (Mirus Bio) according to the manufacturer’s instructions. Virus stock infectious titres were determined on TZM-bl reporter cells (RRID: CVCL_B478) as previously described.[26] For experiments using SupT1-CCR5 target cells (RRID: CVCL_X633),[27] cultures were maintained in RPMI 1640 medium supplemented with 10% foetal bovine serum (FBS), 2 mM glutamine, 100 U/ml penicillin, and 100 μg/ml streptomycin. […] Cells were then washed three times to remove input virus, counted, and cultured in triplicate in growth media containing serial threefold dilutions of LEN or no LEN (control). […] Culture supernatants were collected 7 days post-inoculation, clarified by centrifugation, and stored at −80 °C for later quantification of vRNA by quantitative reverse transcription polymerase chain reaction (qRT-PCR). […] The stHIV-A19 stock was quantified with a SYBR Green-based qPCR-based product-enhanced RT (PERT) assay using a purified reverse transcriptase (RT) protein standard, as previously described.[28] […] After 7 days, the virus in culture supernatants was quantified using the PERT assay. […]

stHIV-A19 [2] = assay: Multi-round viral replication assay in SupT1-CCR5 cells, stHIV-A19; format: cell-based, simian-tropic HIV-1; settings: Human immunodeficiency virus 1, 168 h, supernatant vRNA 7 days post-infection, mean ± SD of three independent experiments, read-out: mean EC50 against stHIV-A19
Description: as §1

For `CC(C)(C#Cc1ccc(-c2ccc(Cl)c3c(NS(C)(=O)=O)nn(CC(F)(F)F)c23)c([C@H](Cc2cc(F)cc(F)c2)NC(=O)Cn2nc(C(F)(F)F)c3c2C(F)(F)[C@@H]2C[C@H]32)n1)S(C)(=O)=O` [LEN, Lenacapavir], the “mean EC95 against stHIV-A19 in human PBMC” value (stHIV-A19 [1]; calculated from EC50 with Hill coefficient 3.51) was 122 ± 31 pM, the “mean EC95 against stHIV-A19 in human PBMC” value (stHIV-A19 [1]; calculated from EC50 with Hill coefficient 3.51, listed as Lenacapavir) was 122 (±31 SD) pM and the EC50 (stHIV-A19 [2]) was 0.091 nM.
